# Laboratory results published in ChEMBL document CHEMBL1201862, “PubChem BioAssay data set” (2004).
#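 Grown in 96-well plates, cells were treated for 48 hours with each compound at five concentrations. Insufficient inhibition: endpoint recorded as highest concentration tested. Abbreviation: GI50, concentration required for 50% inhibition of growth.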 Activity calls are given as the source filed them. No stated cut-off is given here; in the data, active = GI50 up to about 1.1 µM and inactive = higher.
# Columns and labels:
# Assay in all cases: NCI tumour cell line growth inhibition, 48 h
# MDA-MB-231 = test system: MDA-MB-231
# EKVX = test system: EKVX
# HCC 2998 = test system: HCC 2998
# 786-0 = test system: 786-0
# Hs-578T = test system: Hs-578T
# Malme-3M = test system: Malme-3M
# SK-OV-3 = test system: SK-OV-3
# SNB-19 = test system: SNB-19
# NCI-H226 = test system: NCI-H226
# UO-31 = test system: UO-31
# TK-10 = test system: TK-10
# DU-145 = test system: DU-145
# HCT-15 = test system: HCT-15
# A498 = test system: A498
# PC-3 = test system: PC-3
# SN12C = test system: SN12C
# T47D = test system: T47D
# HL-60 = test system: HL-60
# U-251 = test system: U-251
# IGROV-1 = test system: IGROV-1
Structure (SMILES),GI50 (MDA-MB-231),GI50 (EKVX),GI50 (HCC 2998),GI50 (786-0),GI50 (Hs-578T),GI50 (Malme-3M),GI50 (SK-OV-3),GI50 (SNB-19),GI50 (NCI-H226),GI50 (UO-31),GI50 (TK-10),GI50 (DU-145),GI50 (HCT-15),GI50 (A498),GI50 (PC-3),GI50 (SN12C),GI50 (T47D),GI50 (HL-60),GI50 (U-251),GI50 (IGROV-1)
O=C1CC(c2ccc(Cl)cc2)C2(C(=O)NC(=S)NC2=O)C(c2ccc(Cl)cc2)C1 (centres undefined),20.2 µM (inactive),29 µM (inactive),25.8 µM (inactive),36.5 µM (inactive),30 µM (inactive),21.4 µM (inactive),14.9 µM (inactive),18.4 µM (inactive),21.7 µM (inactive),23.9 µM (inactive),41.1 µM (inactive),37.2 µM (inactive),23.7 µM,15.9 µM (inactive),20.1 µM (inactive),18.2 µM (inactive),23.7 µM (inactive),20.8 µM (inactive),29.2 µM (inactive),–
Oc1ccccc1CNCc1nc2ccccc2[nH]1,71.9 µM (inactive),36.1 µM (inactive),> 100 µM (inactive),26.1 µM (inactive),> 100 µM (inactive),–,–,> 100 µM (inactive),20.9 µM (inactive),11.2 µM (inactive),83 µM (inactive),> 100 µM (inactive),3.01 µM,> 100 µM (inactive),71.9 µM (inactive),> 100 µM (inactive),> 100 µM (inactive),40.9 µM (inactive),41.5 µM (inactive),> 100 µM (inactive)
COc1ccc(N(CN2C(=O)CCC2C(=O)O)C(C)=O)cc1 (centres undefined),> 100 µM (inactive),> 100 µM (inactive),> 100 µM (inactive),> 100 µM (inactive),> 100 µM (inactive),> 100 µM (inactive),> 100 µM (inactive),> 100 µM (inactive),> 100 µM (inactive),> 100 µM (inactive),> 100 µM (inactive),> 100 µM (inactive),> 100 µM,> 100 µM (inactive),> 100 µM (inactive),> 100 µM (inactive),> 100 µM (inactive),> 100 µM (inactive),> 100 µM (inactive),–
CC1(C)C2CCC(=O)C1C(OCc1ccccc1)C2 (centres undefined),> 100 µM (inactive),–,> 100 µM (inactive),> 100 µM (inactive),> 100 µM (inactive),> 100 µM (inactive),> 100 µM (inactive),> 100 µM (inactive),> 100 µM (inactive),> 100 µM (inactive),> 100 µM (inactive),> 100 µM (inactive),> 100 µM,> 100 µM (inactive),> 100 µM (inactive),> 100 µM (inactive),> 100 µM (inactive),67.3 µM (inactive),> 100 µM (inactive),> 100 µM (inactive)
CC(C)(C)OC(=O)N[C@@H](Cc1ccccc1)C(=O)N1CC[C@@H](C(=O)N2[C@H]3CC4CC[C@@]3(CS2(=O)=O)C4(C)C)N1,48 µM (inactive),–,79.3 µM (inactive),> 100 µM (inactive),46.8 µM (inactive),–,> 100 µM (inactive),93.8 µM (inactive),> 100 µM (inactive),–,–,79.6 µM (inactive),56.9 µM,> 100 µM (inactive),45.7 µM (inactive),59 µM (inactive),0.752 µM (active),75.5 µM (inactive),> 100 µM (inactive),–
COC1OC(=O)C(OC)C(OC)C1OC (centres undefined),> 100 µM (inactive),> 100 µM (inactive),> 100 µM (inactive),> 100 µM (inactive),> 100 µM (inactive),–,> 100 µM (inactive),> 100 µM (inactive),> 100 µM (inactive),> 100 µM (inactive),> 100 µM (inactive),> 100 µM (inactive),> 100 µM,> 100 µM (inactive),> 100 µM (inactive),> 100 µM (inactive),> 100 µM (inactive),> 100 µM (inactive),> 100 µM (inactive),> 100 µM (inactive)
Cc1cc(-c2ccc(Cl)cc2)c(C#N)c(=S)n1C1OC(CO)C(O)C(O)C1O (centres undefined),> 100 µM (inactive),> 100 µM (inactive),> 100 µM (inactive),> 100 µM (inactive),> 100 µM (inactive),> 100 µM (inactive),> 100 µM (inactive),> 100 µM (inactive),> 100 µM (inactive),–,> 100 µM (inactive),> 100 µM (inactive),> 100 µM,> 100 µM (inactive),> 100 µM (inactive),> 100 µM (inactive),99.8 µM (inactive),> 100 µM (inactive),–,> 100 µM (inactive)
CC1(C)S[C@@H]2[C@H](N3C(=O)c4ccccc4C3=O)CN2[C@H]1NC(=O)N[C@@H]1N2C[C@@H](N3C(=O)c4ccccc4C3=O)[C@H]2SC1(C)C,52.7 µM (inactive),–,> 100 µM (inactive),54.5 µM (inactive),> 100 µM (inactive),> 100 µM (inactive),80.9 µM (inactive),43.2 µM (inactive),> 100 µM (inactive),> 100 µM (inactive),77.1 µM (inactive),> 100 µM (inactive),> 100 µM,> 100 µM (inactive),> 100 µM (inactive),> 100 µM (inactive),> 100 µM (inactive),> 100 µM (inactive),27 µM (inactive),> 100 µM (inactive)
N=C(NCc1ccccc1)N/N=C\c1ccnc2ccccc12,13.9 µM (inactive),10 µM (inactive),2.1 µM (inactive),13.7 µM (inactive),18.8 µM (inactive),10.2 µM (inactive),15.5 µM (inactive),17.9 µM (inactive),17.1 µM (inactive),10.4 µM (inactive),14.8 µM (inactive),16.5 µM (inactive),16 µM,12.5 µM (inactive),15.6 µM (inactive),15.1 µM (inactive),1.41 µM (inactive),14.3 µM (inactive),15.6 µM (inactive),–
CC(=O)OC(=C(C#N)C#N)c1nccnc1C(C)=O,> 20 µM (inactive),> 20 µM (inactive),> 20 µM (inactive),> 20 µM (inactive),4.44 µM (inactive),9.29 µM (inactive),> 20 µM (inactive),> 20 µM (inactive),6.01 µM (inactive),> 20 µM (inactive),–,> 20 µM (inactive),> 20 µM,> 20 µM (inactive),> 20 µM (inactive),> 20 µM (inactive),> 20 µM (inactive),7.01 µM (inactive),6.07 µM (inactive),> 20 µM (inactive)
CN1N=C(c2ccncc2)OC1c1ccccc1F (centres undefined),> 100 µM (inactive),> 100 µM (inactive),> 100 µM (inactive),> 100 µM (inactive),> 100 µM (inactive),–,> 100 µM (inactive),> 100 µM (inactive),73.1 µM (inactive),> 100 µM (inactive),> 100 µM (inactive),> 100 µM (inactive),> 100 µM,> 100 µM (inactive),> 100 µM (inactive),> 100 µM (inactive),51.8 µM (inactive),> 100 µM (inactive),> 100 µM (inactive),> 100 µM (inactive)
O=C(/C=C/c1ccc2ccccc2c1)NCc1ccc(C(=O)NCc2ccccc2)cc1,> 100 µM (inactive),> 100 µM (inactive),> 37.2 µM (inactive),67.9 µM (inactive),37.9 µM (inactive),> 35.8 µM (inactive),> 100 µM (inactive),35.9 µM (inactive),26.3 µM (inactive),> 53.8 µM (inactive),> 100 µM (inactive),> 100 µM (inactive),–,> 83.8 µM (inactive),> 100 µM (inactive),> 100 µM (inactive),> 36.3 µM (inactive),14.7 µM (inactive),> 60 µM (inactive),> 70 µM (inactive)
O=C(O)Cc1ccc(Oc2nc3ccccc3nc2C(=O)O)cc1,> 100 µM (inactive),> 100 µM (inactive),> 100 µM (inactive),> 100 µM (inactive),> 100 µM (inactive),–,> 100 µM (inactive),> 100 µM (inactive),> 100 µM (inactive),> 100 µM (inactive),> 100 µM (inactive),> 100 µM (inactive),> 100 µM,> 100 µM (inactive),> 100 µM (inactive),> 100 µM (inactive),> 100 µM (inactive),0.0305 µM (active),> 100 µM (inactive),> 100 µM (inactive)
CC1CC[C@@]2(OC1)O[C@H]1[C@H](O)[C@H]3[C@@H]4CC[C@H]5C[C@@H](OC6OC(CO)C(OC7OC(CO)C(O)C(OC8OCC(O)C(O)C8O)C7OC7OC(CO)C(O)C(O)C7OC7OC(CO)C(O)C(O)C7O)C(O)C6O)[C@H](O)C[C@]5(C)[C@H]4CC[C@]3(C)[C@H]1[C@@H]2C (some centres undefined),2.61 µM (inactive),> 10 µM (inactive),> 10 µM (inactive),3.12 µM (inactive),3.67 µM (inactive),> 10 µM (inactive),–,9.35 µM (inactive),> 10 µM (inactive),4.18 µM (inactive),> 10 µM (inactive),> 10 µM (inactive),> 10 µM,> 10 µM (inactive),2.7 µM (inactive),3.89 µM (inactive),> 10 µM (inactive),1.54 µM (inactive),5.01 µM (inactive),3.7 µM (inactive)
O=C(NCCNCCO)N/N=C/c1ccc([N+](=O)[O-])cc1,> 100 µM (inactive),–,> 100 µM (inactive),> 100 µM (inactive),57.1 µM (inactive),43.8 µM (inactive),> 100 µM (inactive),> 100 µM (inactive),> 100 µM (inactive),> 100 µM (inactive),90.8 µM (inactive),> 100 µM (inactive),> 100 µM,47.4 µM (inactive),> 100 µM (inactive),> 100 µM (inactive),> 100 µM (inactive),> 100 µM (inactive),> 100 µM (inactive),> 100 µM (inactive)
